Results as given in PubChem BioAssay (NCI).
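Growth conditions: 96-well plates. Treatment: test compound, 48 hours, 5 concentrations. Analysis: linear interpolation between bracketing concentrations; unreached endpoints set to highest concentration. TGI: concentration producing complete growth inhibition.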

Assays:
Assay in all cases: NCI anticancer screen, dose series, 48 h
HCC-2998 colon = system: HCC-2998 colon
NCI/ADR-RES ovarian = system: NCI/ADR-RES ovarian
T-47D breast = system: T-47D breast
SF-539 CNS = system: SF-539 CNS
A549 NSCLC = system: A549 NSCLC
786-0 renal = system: 786-0 renal
A498 renal = system: A498 renal
DLD-1 colon = system: DLD-1 colon
DMS 273 small cell lung = system: DMS 273 small cell lung
HOP-18 NSCLC = system: HOP-18 NSCLC
KM20L2 colon = system: KM20L2 colon
M19-MEL melanoma = system: M19-MEL melanoma
DMS 114 small cell lung = system: DMS 114 small cell lung
LXFL 529 NSCLC = system: LXFL 529 NSCLC

| SMILES | TGI (HCC-2998 colon) [µM] | TGI (NCI/ADR-RES ovarian) [µM] | TGI (T-47D breast) [µM] | TGI (SF-539 CNS) [µM] | TGI (A549 NSCLC) [µM] | TGI (786-0 renal) [µM] | TGI (A498 renal) [µM] | TGI (DLD-1 colon) [µM] | TGI (DMS 273 small cell lung) [µM] | TGI (HOP-18 NSCLC) [µM] | TGI (KM20L2 colon) [µM] | TGI (M19-MEL melanoma) [µM] | TGI (DMS 114 small cell lung) [µM] | TGI (LXFL 529 NSCLC) [µM] |
| --- | --- | --- | --- | --- | --- | --- | --- | --- | --- | --- | --- | --- | --- | --- |
| CC1(C)CCC(=O)NC1CC(=O)CC1NC(=O)CCC1(C)C (configuration not stated) | > 100 | > 100 | > 100 | > 100 | > 100 | > 100 | > 100 |  |  |  |  |  |  |  |
| CCOC(=O)Cn1c(=O)c2cc(-c3ccccc3)cc3c(Cl)nc4c(OC)c(OC)cc1c4c32 | 34.5 | 56.5 | > 100 | > 100 | > 100 | > 100 | 59.6 |  |  |  |  |  |  |  |
| CC(C)OC(=O)[C@@H](O)[C@H](CO)C1=CC([Si](C)(C)c2ccccc2)=CON1 | > 100 | > 100 | > 100 | > 100 | > 100 | > 100 | > 100 |  |  |  |  |  |  |  |
| CCCCCCCCCCCCCCCCCCOCC(COP(=O)([O-])OCC[N+](C)(C)C)OC (configuration not stated) | 9.93 | 64.1 | > 100 | > 70.2 | 49.3 | > 71.7 | 45.8 | 17.7 | 10.5 | 27.5 | 9.02 | 16.8 | 26.8 |  |
| N#Cc1nc(CCC(c2nc(C#N)c(N)o2)N2C(=O)c3ccccc3C2=O)oc1N (configuration not stated) | > 100 | > 100 | > 100 | > 100 | > 100 | > 100 | > 100 |  |  |  |  |  |  |  |
| O=C1c2ccccc2-c2nc(/C=C/c3ccccc3)cc3c2c1nc1ccccc13 | 64.6 | > 100 | > 100 | > 100 | > 100 | > 100 | > 100 |  |  |  |  |  |  |  |
| O=C1c2ccccc2C(=O)c2c(O)ccc(O)c21 | > 100 |  |  | > 100 | > 100 | > 100 | > 100 | > 100 | > 100 |  |  | 69.2 | > 100 | > 100 |
| c1ccc2c(c1)CC1COc3ccccc3C1O2 (configuration not stated) | > 100 | > 100 | > 100 | > 100 | > 100 | > 100 | > 100 |  |  |  |  |  |  |  |
| Cc1cc2nc(N3C(=O)/C(=C/c4ccc(Cl)cc4)N=C3c3ccccc3)sc2cc1C | 48.5 | 87.3 | > 100 | > 100 | > 100 | 92.1 | 85.9 |  |  |  |  |  |  |  |
| N#Cc1ccc(Oc2nc3ccc(C(F)(F)F)cc3nc2-c2ccccc2)cc1 | 32.3 | 37.1 | 38.5 | 89.3 | 35.9 | 30.8 | 31.2 |  |  |  |  |  |  |  |
| C[C@]1(O)O[C@@H]2OCC[C@@H]2C2=C1C(=O)c1ccccc1C2=O | 40.6 | 45.8 | 59.1 | 31.7 | 35.2 | 28.8 | 27.1 |  |  |  |  |  |  |  |
| C=CCCCCCCCCCOC1C=CC(OC(C)=O)C(COC(C)=O)O1 (configuration not stated) | > 100 | > 100 | > 100 | > 100 | > 100 | > 100 | > 100 |  |  |  |  |  |  |  |
| CC(=O)N1c2ccccc2C(C)C1c1[nH]c2ccccc2c1C (configuration not stated) | 34 | > 100 | 91.5 | 27.2 | 83.2 | 39.9 | 53.8 |  |  |  |  |  |  |  |
| NC(=O)CC(N=C1C(=O)OC(C(O)CO)C1=NC(CC(N)=O)C(=O)O)C(=O)O (configuration not stated) | > 100 | > 100 | > 100 | > 100 | > 100 | > 100 | > 100 |  |  |  |  |  |  |  |
| c1ccc(-c2cc(-c3cccs3)c(-c3cccs3)o2)cc1 | > 100 | > 100 | > 100 | > 100 | > 100 | > 100 | > 100 |  |  |  |  |  |  |  |
| CC(C)C(=O)/C=C/c1ccc(Cl)c(Cl)c1 | 33.2 |  |  | 26 | 49.2 | 27.6 | 62.1 | 34.2 |  | 23.5 | 37.8 | 32.3 | 42.3 | 40.2 |
| COc1ccc2cc(C(=O)NCCCNC(=O)c3ccc4cc(OC)ccc4c3)ccc2c1 | > 100 | > 100 | > 100 | 7.99 | > 100 | 57.5 | > 100 |  |  |  |  |  |  |  |
| CC[C@@]12C=CC(=S)N(CCSc3ccccc3)[C@@H]1c1c(n(S(=O)(=O)c3ccc(OC)cc3)c3ccccc13)CC2 | > 100 | > 100 | > 100 | > 100 | > 100 | > 100 | > 100 |  |  |  |  |  |  |  |
| COc1cc2c(cc1OCCCC(=O)Nc1cc(C(=O)NCCCN(C)C)n(C)n1)N=CC1CCCN1C2=O (configuration not stated) | 28.3 | > 74.4 | > 100 | 22.1 | > 41.6 | > 23.5 | 12.4 |  |  |  |  |  |  |  |

| SMILES | TGI (HCC-2998 colon) [µM] | TGI (NCI/ADR-RES ovarian) [µM] | TGI (T-47D breast) [µM] | TGI (SF-539 CNS) [µM] | TGI (A549 NSCLC) [µM] | TGI (786-0 renal) [µM] | TGI (A498 renal) [µM] | TGI (DLD-1 colon) [µM] | TGI (DMS 273 small cell lung) [µM] | TGI (HOP-18 NSCLC) [µM] | TGI (KM20L2 colon) [µM] | TGI (M19-MEL melanoma) [µM] | TGI (DMS 114 small cell lung) [µM] | TGI (LXFL 529 NSCLC) [µM] |
| --- | --- | --- | --- | --- | --- | --- | --- | --- | --- | --- | --- | --- | --- | --- |
| Cn1c(=O)c2c(nc(Nc3ccc(Cl)cc3)n3c(=O)n(-c4ccccc4)c(=O)n23)n(C)c1=O | > 100 | > 100 | > 100 | > 100 | > 100 | > 100 | > 100 |  |  |  |  |  |  |  |
| CCOP(=O)(OCC)C1=NC=CC=CC1n1c(-c2ccccc2)nn(CC)c1=O (configuration not stated) | > 100 |  |  | > 100 | > 100 | > 100 |  | > 100 | > 100 | > 100 | > 100 | > 100 | > 100 | > 100 |
| Cc1ccc(S(=O)(=O)N2CCNCCN(S(=O)(=O)c3ccc(C)cc3)CCN(S(=O)(=O)c3ccc(C)cc3)CC2)cc1 | > 100 | > 100 | > 100 | > 100 | > 100 | > 100 | > 100 |  |  |  |  |  |  |  |
| C=C(C(=O)OC)c1cc2ccccc2n1S(=O)(=O)c1ccccc1 | 8.35 | 18.7 | 5.51 | 3.66 | 31.9 | > 33.5 | 5.69 |  |  |  |  |  |  |  |
| S=C(Nc1ccccn1)Nc1ccccc1Cl | > 100 | > 100 | > 100 | > 100 | > 100 | > 100 | > 100 |  |  |  |  |  |  |  |
| Cc1ccc(C(=O)Nc2ccc(S(=O)(=O)O)c3cc(S(=O)(=O)O)cc(S(=O)(=O)O)c23)cc1NC(=O)c1cccc(NC(=O)Nc2cccc(C(=O)Nc3cc(C(=O)Nc4ccc(S(=O)(=O)O)c5cc(S(=O)(=O)O)cc(S(=O)(=O)O)c45)ccc3C)c2)c1 (tested in a mixture with another compound) | > 50 | > 50 | > 50 | > 50 | > 50 | > 50 | > 50 |  |  |  |  |  |  |  |
| C=CCN(c1cc(OC)c2[nH]cc(C)c2c1[N+](=O)[O-])S(C)(=O)=O | > 100 | > 100 | > 100 | > 100 | > 100 | > 100 | > 100 |  |  |  |  |  |  |  |
| Nc1ccc(Oc2ccc(C34CC5CC6C3CC3CC4C(C5)C6(c4ccc(Oc5ccc(N)c(O)c5)cc4)C3)cc2)cc1O | 7.57 | > 92.8 | > 63.7 | 0.652 | 12.9 | 14.9 | 20.4 |  |  |  |  |  |  |  |
| COC(=O)c1ccccc1C1CN=NC12Cc1cccc(C)c1C2=O (configuration not stated) | > 100 | 45.7 | 56.4 | > 100 | > 100 | > 100 | > 100 |  |  |  |  |  |  |  |
| COc1ccccc1NC(=O)O/N=C(/Cl)C(C)C | 30.1 | 35.5 | 59.2 | 35.9 | 34.4 | 24.9 | 29.9 |  |  |  |  |  |  |  |
| COc1cc(C2c3cc4c(cc3[C@@H](Nc3cccc([N+](=O)[O-])c3)C3COC(=O)[C@H]23)OCO4)cc(OC)c1O (some centres not stated) | 6.41 | > 54.2 |  | 4.02 | 4.38 |  | 4.47 | 17.1 | 6.11 | 39.3 | > 42 | > 100 | 9.18 |  |
| O=C(N/N=C\c1ccccc1)Nc1cccc2ccccc12 | > 100 | > 100 | 48.2 | > 100 | > 100 | 30.1 | 88.9 |  |  |  |  |  |  |  |
| COc1cc2c(cc1OC)-c1cc3cc(OC)c(OC)cc3c(=O)n1CC2 | > 100 | > 80.1 | 8.34 | 50.9 | > 100 | > 100 | 45.2 |  |  |  |  |  |  |  |
| NC1CC(=O)c2sccc21 (configuration not stated) | > 100 | > 100 | > 100 | > 100 | > 100 | > 100 | > 100 |  |  |  |  |  |  |  |
| CCN(CC)CCCC(C)NC(=O)c1ccc2c(c1)C(=O)c1ccccc1C2=O (configuration not stated) | 33.5 |  |  | 36 | 57.4 | 39.5 | 42.3 | 45.4 | 46.2 | > 100 | 51.9 | 32 | 20 | 66.9 |
| Clc1nc(Cl)c(CBr)c(Cl)n1 | 30.8 | > 43.2 | 36.1 | 7.76 | 35.2 | 5.18 | 32.1 |  |  |  |  |  |  |  |
| Clc1ncc(Cl)c(Cl)n1 | 15.1 | 20.5 | 10 | 24.6 | 28.8 | 7.49 | 40.2 |  |  |  |  |  |  |  |
| N=c1c2c(=S)n(-c3ccccc3)c(=S)n(-c3ccccc3)c2nc(SCCN2CCOCC2)n1-c1ccccc1 | 3.24 | 14.6 | 8.03 | 8.83 | 3.36 | 3.14 | 8.96 |  |  |  |  |  |  |  |
| CC(C)(C)c1ccc(C(C)(C)C)c(N2C(=O)C3ON=C(c4ccc([N+](=O)[O-])cc4)C3C2=O)c1 (configuration not stated) | > 25 | > 25 | > 25 | > 25 | > 25 | 9.71 | 23.2 |  |  |  |  |  |  |  |
